Key:
in vitro [1] = details: rat, plasma
in vitro [2] = details: rat, liver microsomes
in vivo [3] = details: CD1, mouse, brain/plasma, ip, 5 mg/kg
in vivo [4] = details: Sprague-Dawley, rat
in vivo [5] = details: CD1, mouse, brain, ip, 5 mg/kg
in vivo [6] = details: Sprague-Dawley, rat, iv, 1 mg/kg
Rattus norvegicus [7] = species: Rattus norvegicus; details: in vivo, po, 3 mg/kg
Rattus norvegicus [8] = species: Rattus norvegicus; details: in vivo, po, 3 mg/kg; remark: listed apart in the source
in vivo [9] = details: Sprague-Dawley, rat, po, 3 mg/kg
in vivo [10] = details: Sprague-Dawley, rat, plasma, po, 3 mg/kg
in vivo [11] = details: Sprague-Dawley, rat, iv, 1 mg/kg; remark: listed apart in the source

| SMILES | remaining at 1 h (in vitro [1]) [%] | half-life (in vitro [2]) [min] | Kp at 10 min (in vivo [3]) | half-life (in vivo [4]) [min] | concentration at 10 min (in vivo [5]) [ng/g] | Vd (in vivo [6]) [L/kg] | bioavailability (in vivo [9]) [%] | AUC (in vivo [10]) [ng·h/mL] | clearance (in vivo [11]) [mL/min/kg] | F (Rattus norvegicus [7]) [%] | AUC (Rattus norvegicus [8]) [ng·min/mL] |
| --- | --- | --- | --- | --- | --- | --- | --- | --- | --- | --- | --- |
| COc1ccccc1N1CCN(C(=O)c2cc(-c3ccc(Cl)cc3)n[nH]2)[C@@H](C)C1 | 100 | 2 |  |  |  |  |  |  |  |  |  |
| COc1ccccc1N1CCN(C(=O)c2cc(-c3ccc(Cl)cc3)n(C)n2)CC1 | 100 | 40 | 0.64 | 310 | 1700 | 3.3 |  |  |  | 53 | 90501 |
| CC[C@H](NC(=O)c1c(O)c(-c2ccccc2)nc2ccccc12)c1ccccc1 [TALNETANT] | 100 | 60 | 0.07 | 450 | 340 | 1.4 | 53 | 15600 | 1.9 |  |  |

Continued, in another order:

| remaining at 1 h (in vitro [1]) [%] | half-life (in vitro [2]) [min] | Kp at 10 min (in vivo [3]) | half-life (in vivo [4]) [min] | concentration at 10 min (in vivo [5]) [ng/g] | Vd (in vivo [6]) [L/kg] | bioavailability (in vivo [9]) [%] | AUC (in vivo [10]) [ng·h/mL] | clearance (in vivo [11]) [mL/min/kg] | SMILES | F (Rattus norvegicus [7]) [%] | AUC (Rattus norvegicus [8]) [ng·min/mL] |
| --- | --- | --- | --- | --- | --- | --- | --- | --- | --- | --- | --- |
| 5 | 45 |  |  |  |  |  |  |  | COc1ccccc1N1CCN(C(=O)c2cc(-c3ccc(Cl)cc3Cl)n[nH]2)CC1 |  |  |
|  | 23 | 0.03 | 110 | 30 | 8.7 | 17 | 114 | 57 | CC(=O)N(C)C1(c2ccccc2)CCN(CCC[C@]2(c3ccc(Cl)c(Cl)c3)CCCN(C(=O)c3ccccc3)C2)CC1 [OSANETANT] |  |  |

From ChEMBL document CHEMBL1759909, “Discovery of 3-aryl-5-acylpiperazinyl-pyrazoles as antagonists to the NK3 receptor” (Bioorg Med Chem Lett, 2011)
